Data reported in paper PMC7709805 (Biochemistry (Moscow) Supplement. Series A, Membrane and …, 2020).
Read-outs that look alike come from different tables or passages of the source.

What was measured:
[1] = concentrations of the order of tens of μM; cited from earlier work
[2] = test system: macrophages IC-21; details: peptide at 50 μM, IC-21 cells, 1 h
[3] = test system: macrophages IC-21; assay: Binding of 2-μm non-opsonized latex particles by macrophages; assay type: cell-based, mouse
[4] = test system: macrophages IC-21; assay type: cell-based, mouse
[5] = test system: hepatitis C virus; details: in vitro; cited from earlier work

For ATVLNYYVWRDNS, the Toxicity [1] is listed as “not toxic”.
With “Ac-STKLSEMLSELGNMDKASKLSRKLSR-NH2 [Mut2]” the “Toxic effect on cells” value [2] was “not toxic” and the “Change in the phagocytosis index” value ([3]; concentration range from 0.5 to 50 μM, 6 independent experiments for each peptide) was “did not cause significant changes”.
For “methyl-β-cyclodextrin [mβCD, reference compound]”, the “Cell activity, % of the control” value ([4]; 3.7 mM mβCD, without a peptide, representative experiment, p < 0.001) was 121 % of the control.
For VLNYYVW, the Toxicity [1] is given as “not toxic”.
In the case of SWLRDIWDWICEVLSDFK [C5A], the “Suppression of virus production” value [5] is listed as “more than 5 orders of magnitude”.
In the case of “Ac-EWGMAVLWERNRKLKKDLKVLKMLRT-NH2 [Mut1]”, the “Toxic effect on cells” value [2] is reported as “did not exert a toxic effect”, the “Number of particles per cell, % of the control” value ([4]; peptide at 2 μM, cells not treated with mβCD, representative experiment (Fig. 5)) is reported as 134 % of the control and the “Number of particles per cell, % of the control” value ([3]; Mut1 at 2–10 μM, 7 independent experiments) is reported as ~ 160 % of the control. The “Concentration range at which maximal stimulatory effect was observed” value ([3]; number of particles per cell, IC-21, 1 h at 37°C, peptide range 0.5 to 50 μM) was 4 to 5 µM and the “Phagocytic index relative to control” value ([3]; peptide at 50 μM, 7 independent experiments) was “returned to the control level”.
